# Values joined by “and” are separate entries in the source; they are usually repeats but may differ in a detail not shown here. Identical values can stand only once.
# How the values were obtained:
# [1] = MTS assay, cytotoxicity (72 h); assay type: cell-based; details: human, HEK293a SHH+ cells, 72 h; for CC50 at 72 h: read-out: MTS Assay (HEK293a SHH+) CC50 (CI95)
# Description: (§1) The survival of HEK293a SHH^+ cells is independent of HH signaling,[35] therefore, the cytotoxicity of analogues was tested using the MTS assay to investigate off-target toxicity. In this assay, HEK293a SHH^+ cells were treated with DMSO vehicle or varying concentrations of analogues for 72 h. Subsequently, a mixture of 1-methoxy phenazine methosulfate (PMS) and [3-(4,5-dimethylthiazol-2-yl)-5-(3-carboxymethoxyphenyl)-2-(4-sulfophenyl)-2H-tetrazolium] (MTS) was added to enable quantification of cell number via colorimetric analysis. […] Compounds 3, 17, 19, 32, 34, 38, and 45, which all contain a 2-((2-methylbutyl)amino)acetyl, were toxic to HEK293a SHH^+ cells, as were ureas 26, 40, and 41.
# (§2) HEK293a SHH^+ cells were plated at 5000 cells/well in a 96-well plate (Nunc) using a volume of 50 μL/well and cultured for 24 h as described. Cells were treated with 100 μL/well of either DMSO vehicle, Puromycin (2 μg/mL), or stated analogues (0.14–100 μM final) in DMEM supplemented with 10% FBS. After 72 h, 20 μL/well of a mixture of 1-methoxy phenazine methosulfate (PMS) and [3-(4,5-dimethylthiazol-2-yl)-5-(3-carboxymethoxyphenyl)-2-(4-sulfophenyl)-2H-tetrazolium] (MTS) at a ratio of MTS/PMS = 2/0.92 mg/mL in PBS was added and the plates were incubated for 3 h at 37 °C. Subsequently, the absorption at 490 nm was recorded using an EnVision Xcite 2104 (PerkinElmer), and the response was normalized to vehicle control and Puromycin treated samples. Dose response curves were fitted to a “sigmoidal dose response (variable slope)” model using GraphPad Prism 5 (GraphPad Software, Inc.).
# HEK293a SHH+ cells = assay: MTS assay, cytotoxicity (72 h); assay type: cell-based; details: for decrease in cell viability / cell survival: 12.5 μM
# Description: as §1, §2
# purified HHAT = target: T1, purified HHAT (Homo sapiens, UniProt Q5VTY9); assay: Acyl-cLIP assay, inhibition of purified HHAT; assay type: biochemical; details: for IC50: purified HHAT, read-out: Acyl-cLIP Assay IC50 (CI95); for LLEAcyl-cLIP: from Acyl-cLIP IC50 and clogDpH7.4
# T1 construct: made in house
# Description: The inhibitory potency of all 50 compounds against purified HHAT was quantified using the acylation-coupled lipophilic induction of polarization (acyl-cLIP) assay recently developed in our lab, a universally applicable assay for high-throughput analysis of protein–lipid transferases and hydrolases.[31],[40] In brief, in this assay a fluorescently labeled peptide based on the N-terminal sequence of SHH is incubated with N-dodecyl β-D-maltoside (DDM) solubilized purified HHAT, palmitoyl-CoA, and HHAT inhibitors. Binding of the lipidated peptide product to the DDM micelle results in decreased tumbling rate and an increase in polarization of fluorescence emission, enabling facile quantification of HHAT activity. Initially, % HHAT inhibition was determined at 50 μM and 25 μM for all analogues. […] HHAT is a 12-pass TM protein,[14] and we considered whether lipophilicity might bias inhibition; pIC50 values were compared to calculated log D, which indicated no significant correlation (SI, Table S1 and Figure S2). We concluded that lipophilicity is not a general driver of HHAT inhibitory potency.
# The acyl-cLIP assay has been described previously.[40] Briefly, SHH-FAM peptide was diluted in buffer A (100 mM MES, 20 mM NaCl, 1 mM DTT, 1 mM TCEP, 0.1% BSA, pH 6.5) to a concentration of 2 μM. Palmitoyl-CoA (Sigma-Aldrich) was diluted in buffer A to 7.5 μM and recombinant HHAT (obtained by following the published protocol[14]) in buffer B (20 mM HEPES, 350 mM NaCl, 1% DDM, 5% glycerol, pH 7.3) diluted to 44 μg/mL. 1.5 μL of a 50 mM inhibitor DMSO stock was diluted with 18.5 μL of DMSO and further serial diluted (1:1). For each condition, 6 μL of the HHAT working stock and […] of the SHH-peptide working stock were mixed with 3 μL of the corresponding inhibitor concentration or DMSO vehicle. Twelve μL/well of this mixture was split into four wells of a black 384 well plate. To start the reaction, 8 μL of the Pal-CoA working stock were added to each well and fluorescence anisotropy and the total fluorescence recorded on an EnVision Xcite 2104 (PerkinElmer) over 30 min (emission filter 1 = FITC FP P-pol 535; emission filter 2 = FITC S-pol 535; excitation filter: FITC FP 480; measurement height = 6.5 mm; detector gain = 0; high concentration gain). Initial rate constants were determined by linear regression and normalized to DMSO control and samples with buffer B instead of HHAT. IC50 values were extracted from the corresponding dose response curves using a “sigmoidal dose response (variable slope)” model in GraphPad Prism 5 (GraphPad Software, Inc.).
# [2] = PAMPA parallel artificial membrane permeability assay; details: for recovery at 16 h, 10 µM / Papp at 16 h, 10 μM: PAMPA
# Description: Passive diffusion was estimated using the PAMPA method. […] The donor plate was a MultiScreen-IP Plate with 0.45 μm hydrophobe Immobilon-P Membrane (Millipore, #MAIPNTR10) and the acceptor plate was a MultiScreen 96-well Transport Receiver Plate (Millipore, #MATRNPS50). […] Acceptor pH was 7.4. All samples were analyzed against an external, matrix-matched, standard curve by LC-MS/MS with a Waters (Elstree, Herts. UK) Acquity H-class LC system coupled to a Waters TQ-S mass spectrometer. Permeability values (cm/s) were calculated using the following equation: [drawing 2] and VD = volume of donor; VA = volume of acceptor; area = surface area of the membrane · porosity.
# [3] = pH 5, PAMPA Papp pH 5, donor pH 5, 10 µM
# [4] = pH 5, PAMPA Permeability Class pH 5, donor pH 5, 10 µM
# T1 sequence (Q5VTY9 whole entry): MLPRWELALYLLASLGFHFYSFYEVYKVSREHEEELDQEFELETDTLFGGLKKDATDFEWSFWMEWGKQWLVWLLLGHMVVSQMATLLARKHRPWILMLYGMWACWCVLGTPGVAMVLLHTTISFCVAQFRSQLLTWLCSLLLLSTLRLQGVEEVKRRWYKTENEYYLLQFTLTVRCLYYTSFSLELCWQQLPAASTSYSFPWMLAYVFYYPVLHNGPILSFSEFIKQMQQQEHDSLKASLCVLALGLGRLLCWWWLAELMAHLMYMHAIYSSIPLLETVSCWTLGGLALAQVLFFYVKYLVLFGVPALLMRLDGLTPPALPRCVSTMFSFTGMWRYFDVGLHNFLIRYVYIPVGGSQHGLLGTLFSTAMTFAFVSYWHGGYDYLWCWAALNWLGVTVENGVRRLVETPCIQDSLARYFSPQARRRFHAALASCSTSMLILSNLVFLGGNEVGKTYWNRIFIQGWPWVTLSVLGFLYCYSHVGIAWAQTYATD
Compound,HHAT inhibition in the acyl-cLIP assay (purified HHAT),inhibition at 25 µM (purified HHAT),inhibition at 50 µM (purified HHAT),IC50 (purified HHAT),"viability at 72 h, 12.5 µM [1]","viability at 72 h, 25 µM [1]",other results
"O=c1ccc2ccccc2o1 [Coumarin, reference compound]",,,,,,,"recovery at 16 h, 10 µM ([2]; pH 5): 99%; Papp at 16 h, 10 μM [2, 3]: 124 ×10⁻⁶ cm/s; Papp at 16 h, 10 μM [2, 4]: > 20 ×10⁻⁶ cm/s; recovery at 16 h, 10 µM ([2]; pH 6.5): 99%; recovery at 16 h, 10 µM ([2]; pH 7.4): 114%; PAMPA Papp pH 6.5 ([2]; donor pH 6.5, 10 µM): >eqm; PAMPA Permeability Class pH 6.5 ([2]; donor pH 6.5, 10 µM): >eqm; PAMPA Papp pH 7.4 ([2]; donor pH 7.4, 10 µM): >eqm; PAMPA Permeability Class pH 7.4 ([2]; donor pH 7.4, 10 µM): >eqm"
"CC(C)(C)NCC(O)COc1cccc2c1CC(O)C(O)C2 (centres unmarked) [Nadolol, reference compound]",,,,,,,"recovery at 16 h, 10 µM ([2]; pH 5): 97%; Papp at 16 h, 10 μM [2, 3]: < 0.4 ×10⁻⁶ cm/s; Papp at 16 h, 10 μM [2, 4]: < 5 ×10⁻⁶ cm/s; Papp at 16 h, 10 μM ([2]; pH 6.5, PAMPA Papp pH 6.5, donor pH 6.5, 10 µM): < 0.4 ×10⁻⁶ cm/s; Papp at 16 h, 10 μM ([2]; pH 6.5, PAMPA Permeability Class pH 6.5, donor pH 6.5, 10 µM): < 5 ×10⁻⁶ cm/s; recovery at 16 h, 10 µM ([2]; pH 7.4): 135%; Papp at 16 h, 10 μM ([2]; pH 7.4, PAMPA Papp pH 7.4, donor pH 7.4, 10 µM): < 0.3 ×10⁻⁶ cm/s; Papp at 16 h, 10 μM ([2]; pH 7.4, PAMPA Permeability Class pH 7.4, donor pH 7.4, 10 µM): < 5 ×10⁻⁶ cm/s"
c1ccc(C2NCCc3sccc32)cc1 (centres unmarked) [Compound 4],inactive,5 ± 3%,-16 ± 16%,> 25 µM,90 ± 2%,84 ± 3%,
"CC(C)[C@H](N)C(=O)N1CCc2sccc2C1c1ccccc1 (stereo partly drawn) [Compound 8, (2S)-2-Amino-3-methyl-1-(4-phenyl-6,7-dihydrothieno[3,2-c]pyridin-5(4H)-yl)butan-1-one]",,9 ± 4%,7 ± 11%,> 25 µM,92 ± 3%,92 ± 3%,
CC(=S)N1CCc2sccc2C1c1ccccc1 (centres unmarked) [Compound 6],,44 ± 7%,38 ± 2%,> 25 µM,27 ± 2%,29 ± 5%,
"C[C@H](N)C(=O)N1CCc2sccc2C1c1ccccc1 (stereo partly drawn) [Compound 7, (2S)-2-Amino-1-(4-phenyl-6,7-dihydrothieno[3,2-c]pyridin-5(4H)-yl)propan-1-one]",,42 ± 1%,67 ± 3%,,99 ± 3%,74 ± 4%,
CC(=O)N1CCc2sccc2C1c1ccccn1 (centres unmarked) [Compound 18],,49 ± 1%,72 ± 1%,24 µM and 23.7 µM,97 ± 2%,98 ± 2%,CC50 at 72 h [1]: > 100 µM; decrease in cell viability / cell survival (HEK293a SHH+ cells): < 30%; LLEAcyl-cLIP (purified HHAT): 2.73
C=CCN1CCc2sccc2C1c1cccc(C)c1 (centres unmarked) [Compound 15],no inhibitory effect,-1 ± 5%,-5 ± 9%,> 25 µM,81 ± 2%,74 ± 2%,
Clc1ccc(OCC2NCCc3sccc32)cc1 (centres unmarked) [Compound 1],inactive,16 ± 5%,2 ± 2%,> 25 µM,95 ± 3%,84 ± 4%,
Cc1cccc(C2NCCc3sccc32)c1 (centres unmarked) [Compound 14],inactive,5 ± 3%,-16 ± 16%,> 25 µM,72 ± 3%,74 ± 3%,
"N[C@H](C(=O)N1CCc2sccc2C1c1ccccc1)c1ccccc1 (stereo partly drawn) [Compound 10, (2S)-2-Amino-2-phenyl-1-(4-phenyl-6,7-dihydrothieno[3,2-c]pyridin-5(4H)-yl)ethan-1-one]",,18 ± 1%,21 ± 7%,> 25 µM,74 ± 3%,43 ± 2%,
"N[C@@H](Cc1ccccc1)C(=O)N1CCc2sccc2C1c1ccccc1 (stereo partly drawn) [Compound 11, (2S)-2-Amino-3-phenyl-1-(4-phenyl-6,7-dihydrothieno[3,2-c]pyridin-5(4H)-yl)propan-1-one]",,-6 ± 3%,-2 ± 6%,> 25 µM,46 ± 2%,38 ± 1%,

# Now from value to compound, other results behind:
HHAT inhibition in the acyl-cLIP assay (purified HHAT),inhibition at 25 µM (purified HHAT),inhibition at 50 µM (purified HHAT),IC50 (purified HHAT),Compound,"viability at 72 h, 12.5 µM [1]","viability at 72 h, 25 µM [1]",other results
inactivity,0%,4 ± 5%,> 25 µM,"CC(C)CCNC(=O)N1CCc2ccccc2C1c1ccccc1 (centres unmarked) [Compound 40, N-Isopentyl-1-phenyl-3,4-dihydroisoquinoline-2(1H)-carboxamide]",14 ± 4%,12 ± 3%,CC50 at 72 h [1]: 1.8 µM; toxicity to HEK293a SHH+ cells (HEK293a SHH+ cells): toxic
inactivity,0%,27 ± 3%,> 25 µM,"COCCNC(=O)N1CCc2ccccc2C1c1ccccc1 (centres unmarked) [Compound 41, N-(2-Methoxyethyl)-1-phenyl-3,4-dihydroisoquinoline-2(1H)-carboxamide]",83 ± 3%,53 ± 2%,CC50 at 72 h [1]: 20.2 µM; toxicity to HEK293a SHH+ cells (HEK293a SHH+ cells): toxic
loss of activity,24 ± 1%,24 ± 14%,> 25 µM,"CCC(C)CNCC(=O)N1CCc2sccc2C1C1CCCCC1 (centres unmarked) [Compound 36, 1-(4-Cyclohexyl-6,7-dihydrothieno[3,2-c]pyridin-5(4H)-yl)-2-((2-methylbutyl)amino)ethan-1-one]",47 ± 4%,25 ± 1%,
,8 ± 1%,3 ± 1%,> 25 µM,"C=CC(=O)N1CCCCC1c1ccccn1 (centres unmarked) [Compound 49, 1-(2-(Pyridin-2-yl)piperidin-1-yl)prop-2-en-1-one]",96 ± 2%,89 ± 2%,CC50 at 72 h [1]: > 100 µM
,52 ± 3%,63 ± 4%,1.44 µM,CCC(C)CNCC(=O)N1CCc2sccc2C1COc1cccc(C)c1 (centres unmarked) [Compound 3],31 ± 2%,12 ± 3%,"CC50 at 72 h [1]: 8.4 µM; toxicity to HEK293a SHH+ cells (HEK293a SHH+ cells): toxic; decrease in cell viability / cell survival (HEK293a SHH+ cells): 69%; LLEAcyl-cLIP (purified HHAT): 3.16; fold more potent than analogues 19, 32, and 34 (purified HHAT; meta-methyl on 4-position aromatic ring): 2–5 fold"
,4 ± 5%,30 ± 2%,> 25 µM,"O=C([C@@H]1CCCN1)N1CCc2sccc2C1c1ccccc1 (mixture of isomers) [Compound 9, (S)-4-Phenyl-5-prolyl-4,5,6,7-tetrahydrothieno[3,2-c]pyridine]",90 ± 5%,81 ± 5%,

# From article PMC10823475, “Design, Synthesis, and Evaluation of Inhibitors of Hedgehog Acyltransferase” (Journal of Medicinal Chemistry, 2024)
